Read-outs that look alike come from different tables or passages of the source.
Settings: mouse, in vivo
Description: Mice were injected with the various emulsions. The mice were killed at intervals thereafter, the liver and spleen analyzed, and the percentage of original amount of PF material injected and still in the liver and spleen was determined.

- body retention: lack body retention characteristics
- % FC (Of Injected Dose) in LIVER (2880 min): 15%
- % FC (Of Injected Dose) in SPLEEN (2880 min): 1.4%
- % FC (Of Injected Dose) in LIVER (10080 min): 12%
- % FC (Of Injected Dose) in SPLEEN (10080 min): 6%
- % FC (Of Injected Dose) in LIVER (20160 min): 9.3%
- % FC (Of Injected Dose) in SPLEEN (20160 min): 9.2%
- % FC (Of Injected Dose) in LIVER (41760 min): 2.3%
- % FC (Of Injected Dose) in SPLEEN (41760 min): 2.7%
Substance: perfluoromethylpentane

Reference: US4110474A, “Tetramethylpentane blood substitutes” (Suntech, Inc., priority 1977, dated 1978)
